Measurements: PubChem BioAssay (NCI)
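Grown in 96-well plates, cells were treated for 48 hours with each compound at five concentrations. Insufficient inhibition: endpoint recorded as highest concentration tested. GI50 marks 50% less growth. TGI marks complete inhibition of growth.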

Experiments:
Experiment in all cases: inhibition of tumour cell growth, NCI panel, 48 h
MOLT-4 leukemia = system: MOLT-4 leukemia
SK-MEL-28 melanoma = system: SK-MEL-28 melanoma
DMS 273 small cell lung = system: DMS 273 small cell lung
EKVX NSCLC = system: EKVX NSCLC
M14 melanoma = system: M14 melanoma
HCC-2998 colon = system: HCC-2998 colon
DMS 114 small cell lung = system: DMS 114 small cell lung
NCI-H460 lung = system: NCI-H460 lung
OVCAR-4 ovarian = system: OVCAR-4 ovarian
T-47D breast = system: T-47D breast

Row | Structure (SMILES) | TGI (MOLT-4 leukemia) [µM] | TGI (SK-MEL-28 melanoma) [µM] | TGI (DMS 273 small cell lung) [µM] | TGI (EKVX NSCLC) [µM] | TGI (M14 melanoma) [µM] | TGI (HCC-2998 colon) [µM] | TGI (DMS 114 small cell lung) [µM] | GI50 (SK-MEL-28 melanoma) [µM] | GI50 (NCI-H460 lung) [µM] | TGI (NCI-H460 lung) [µM] | GI50 (DMS 273 small cell lung) [µM] | GI50 (HCC-2998 colon) [µM] | GI50 (EKVX NSCLC) [µM] | GI50 (M14 melanoma) [µM] | GI50 (DMS 114 small cell lung) [µM] | TGI (OVCAR-4 ovarian) [µM] | GI50 (MOLT-4 leukemia) [µM] | GI50 (OVCAR-4 ovarian) [µM] | GI50 (T-47D breast) [µM] | TGI (T-47D breast) [µM]
1 | Cc1ccc(NC(=O)C2C(=O)N(c3ccc(C)c(C)c3)C(=O)/C2=N\NC(N)=S)cc1C (stereo not given) | > 100 | > 100 | > 100 | > 100 | > 100 |  |  |  |  |  |  |  |  |  |  |  |  |  |  | 
2 | Cc1[nH]nc2c1C(=O)C=C(N(CCO)c1ccccc1)C2=O | > 100 | > 100 | > 100 | > 100 | > 100 | > 100 | > 100 |  |  |  |  |  |  |  |  |  |  |  |  | 
3 | O=[N+]([O-])[O-].O=[N+]([O-])[O-].[Au].[Au].c1ccc([P-]c2ccccc2)cc1.c1ccc([P-]c2ccccc2)cc1 |  | 75.6 | > 100 | 63 | 52.9 | > 100 | > 100 | 29.3 | 20.4 | > 100 | 39.2 | 71.8 | 33.4 | 22.6 | 37.5 |  |  |  |  | 
4 | O=C(O)/C(=C\c1ccccc1Cl)S(=O)(=O)c1ccccc1 | > 100 |  | > 100 |  | > 100 | > 100 | > 100 |  |  | > 100 |  |  |  |  |  | > 100 |  |  |  | 
5 | CC1(C)CC(=O)C(=[N+]=[N-])C(=O)C1 |  | > 100 |  | > 100 | > 100 | > 100 | > 100 |  |  |  |  |  |  |  |  | > 100 |  |  |  | 
6 | CC1SC(c2c(Cl)cccc2Cl)N(NC(=O)C(O)c2ccccc2)C1=O (stereo not given) | > 100 | > 100 |  | > 100 | > 100 | > 100 |  | > 100 | > 100 | > 100 |  | > 100 | > 100 | 87 |  | > 100 | > 100 | > 100 | 48.2 | > 100
7 | C(=C\c1nccc2c1[nH]c1ccccc12)/c1ccccc1 | 22.3 | 28.4 |  | 59.6 | > 100 | 9.43 |  | 4.78 | 3.28 | 13.7 |  | 2.96 | 1.72 | 2.91 |  | > 100 | 2.84 | 3.18 | 3.6 | 28.2
8 | CCN(CC)CCOc1ccc2c(c1)C(=O)c1cc(OCCN(CC)CC)ccc1-2 | 23.9 | 29.4 |  | 63.6 | 27.1 | 22.6 |  | 15.1 | 4.03 | 15.2 |  | 10 | 20 | 14 |  | 38.7 | 5.27 | 5.69 | 23.8 | 56.2
9 | COC(=O)C1N=CSCC1(C)O (stereo not given) | > 100 | > 100 |  | > 100 | > 100 | > 100 | > 100 |  |  | > 100 |  |  |  |  |  | > 100 |  |  |  | 
10 | CCc1c(O)c2c(c(O)c1C(C)=O)C(=O)c1c(cc(O)c(C(=O)O)c1C(=O)O)C2=O | > 100 | > 100 |  | > 100 | > 100 | > 100 |  |  |  | > 100 |  |  |  |  |  | > 100 |  |  |  | > 100
11 | COc1ccc(C(=O)C(C(=O)C(=O)Nc2nccs2)c2ccc(OC)cc2)cc1 (stereo not given) | > 100 | > 100 | > 100 |  | > 100 |  | > 100 |  |  | > 100 |  |  |  |  |  |  |  |  |  | 
12 | C#Cc1cccc(Oc2ccc(NC(=O)CCl)cc2)c1 | 77.1 | > 82.5 |  | > 82.5 | > 82.5 | > 82.5 |  | > 82.5 | 25.3 | > 82.5 |  | > 82.5 | > 82.5 | 72.8 |  | > 82.5 | 10.8 | 33.3 | > 82.5 | > 82.5
13 | CCCCCCC#CC#Cc1cccc(=O)o1 | > 21 | 10.7 |  | 31.7 | 2.8 | 6.12 |  | 3.22 | 8.14 | 47.9 |  | 2.52 | 13.8 | 0.878 |  | 23.1 | 2.31 | 9.12 | 16.6 | 57.2
14 | NCCP(=O)(O)O | > 100 | > 100 |  | > 100 | > 100 | > 100 |  |  |  | > 100 |  |  |  |  |  | > 100 |  |  |  | > 100
15 | N#C/C(N)=C(\C#N)N=Cc1csc2ccccc12 | > 100 | > 100 |  | > 100 | > 100 | > 100 |  | 37.5 | > 100 | > 100 |  | 90.4 | 27 | 46.8 |  | > 100 | 4.08 | 43.5 | 1.07 | 28.5
